This passage reports solubility, IC50 and Activity results from ChEMBL document CHEMBL4673385, “Discovery of Potent Inhibitors of Streptococcus mutans Biofilm with Antivirulence Activity” (ACS Med Chem Lett, 2021).

≈ marks a conversion by molar mass, not a printed value. Calls of active or inactive are those of the source. How the calls were made is not given here.

Data set [1] can be described thus: Solubility of compound in water. The data set is classed as physicochemical.
For data set [2], the system named is Streptococcus mutans. As to the kind of experiment: Antibiofilm activity against Streptococcus mutans UA159 assessed as inhibition of biofilm formation by serial dilution method. The data set is classed as functional, organism-based.
Data set [3] has as its system Streptococcus mutans. As to the kind of experiment: Bactericidal activity against Streptococcus mutans UA159 assessed as reduction in bacterial growth at 100 uM after 24 hrs. It counts as functional, organism-based.
[4] abbreviates: Streptococcus mutans, UA159, read-out: IC50.

As for `CC(C)(C)OC(=O)NCc1ccccc1NC(=O)c1ccc(-c2ccccc2)cc1`, in data set [1] (water, read-out: solubility), the solubility (usually the concentration that dissolves in the medium under given conditions) is less than 5 µg/mL. For the same molecule, in data set [2] (setting [4]), the IC50 (usually the concentration that inhibits the measured activity by half) was 124 µM. The outcome in data set [3] was inactive.

For `COC(=O)c1ccccc1NC(=O)c1cc2cc([N+](=O)[O-])ccc2o1`, in data set [1] (water, read-out: solubility), the solubility was determined as 25 µg/mL (≈ 73.5 µM). In data set [2] (setting [4]), the IC50 is 71.4 µM. In addition, in data set [3], the outcome was inactive.

As to `CC(C)(C)OC(=O)NCc1ccccc1NC(=O)c1ccc2ccccc2n1`, in data set [1] (water, read-out: solubility), the solubility is less than 5 µg/mL. In data set [2] (setting [4]), the IC50 was 67.5 µM. Moreover, the result in data set [3] was inactive.

Take `NC(=O)c1ccccc1NC(=O)c1ccc2ccccc2c1`: the solubility in data set [1] (water, read-out: solubility) is 25 µg/mL (≈ 86.1 µM). Moreover, in data set [2] (setting [4]), the IC50 stood at 84.1 µM. Further, in data set [3], the result was inactive.

As to `NC(=O)c1cccc(NC(=O)c2cc3cc([N+](=O)[O-])ccc3s2)c1`, the solubility in data set [1] (water, read-out: solubility) was 25 µg/mL (≈ 73.2 µM). The IC50 in data set [2] (setting [4]) worked out at 42.3 µM. Further, the outcome in data set [3] was inactive.

Take `NC(=O)c1ccc(NC(=O)c2ccc3ccccc3c2)cc1`: the solubility in data set [1] (water, read-out: solubility) was less than 5 µg/mL. In addition, the IC50 in data set [2] (setting [4]) came out at 110 µM. The outcome in data set [3] was inactive.

With `COc1ccc2[nH]c(C(=O)Nc3ccccc3)cc2c1`, the solubility result in data set [1] (buffer) is listed as “Insoluble”. Besides, the IC50 entry in data set [2] was “Nd(Insoluble)”. Moreover, in data set [3], the outcome was inactive.

For the molecule `CC(C)(C)OC(=O)NCc1ccccc1NC(=O)c1cc2cc([N+](=O)[O-])ccc2[nH]1`, the solubility entry in data set [1] (buffer) is “Insoluble”. For the same molecule, the IC50 result in data set [2] is given as “Nd(Insoluble)”. Moreover, in data set [3], the outcome was inactive.

Turning to `COc1ccc2[nH]c(C(=O)Nc3ccccc3CN)cc2c1`, the solubility entry in data set [1] (buffer) is “Insoluble”. Also, the IC50 entry in data set [2] is reported as “Nd(Insoluble)”. The result in data set [3] was inactive.

Take `CC(C)(C)OC(=O)NCc1ccccc1NC(=O)c1cc2cc([N+](=O)[O-])ccc2o1`: the solubility in data set [1] (water, read-out: solubility) is 25 µg/mL (≈ 60.8 µM). In data set [2] (setting [4]), the IC50 was found to be 26.8 µM. Moreover, in data set [3], the result was inactive.

Regarding `COC(=O)c1ccc(NC(=O)c2ccc3ccccc3c2)cc1`, the solubility in data set [1] (water, read-out: solubility) came out at 25 µg/mL (≈ 81.9 µM). Moreover, in data set [2] (setting [4]), the IC50 was 112 µM. The result in data set [3] was inactive.

Consider `COc1ccc2[nH]c(C(=O)Nc3ccccc3CNC(=O)OC(C)(C)C)cc2c1`, for which the solubility entry in data set [1] (buffer) is listed as “Insoluble”. In data set [2], the IC50 result was “Nd(Insoluble)”. Further, the outcome in data set [3] was inactive.

In the case of `O=C(Nc1ccccc1)c1ccc2ccccc2n1`, the solubility in data set [1] (water, read-out: solubility) was 25 µg/mL (≈ 101 µM). Moreover, the IC50 in data set [2] (setting [4]) is more than 300 µM. Besides, the result in data set [3] was inactive.

Turning to `COC(=O)c1ccccc1NC(=O)c1cc2cc(OC)ccc2[nH]1`, the solubility entry in data set [1] (buffer) is listed as “Insoluble”. The IC50 result in data set [2] is reported as “Nd(Insoluble)”. Further, the result in data set [3] was inactive.

For the molecule `NC(=O)c1ccccc1NC(=O)c1ccc(-c2ccccc2)cc1`, the solubility in data set [1] (water, read-out: solubility) turned out to be 5 µg/mL (≈ 15.8 µM). The IC50 in data set [2] (setting [4]) worked out at 193 µM. Moreover, the outcome in data set [3] was inactive.

Consider `COC(=O)c1cccc(NC(=O)c2cc3cc([N+](=O)[O-])ccc3o2)c1`, for which the solubility in data set [1] (water, read-out: solubility) came out at 25 µg/mL (≈ 73.5 µM). For the same molecule, in data set [2] (setting [4]), the IC50 was 2.7 µM. Besides, the result in data set [3] was inactive.

In the case of `CC(C)(C)OC(=O)NCc1ccccc1NC(=O)c1cccc2ccccc12`, the solubility in data set [1] (water, read-out: solubility) was found to be 5 µg/mL (≈ 13.3 µM). Besides, the IC50 in data set [2] (setting [4]) worked out at 196 µM. For the same molecule, in data set [3], the outcome was inactive.

With `COC(=O)c1ccc(NC(=O)c2cc3cc(OC)ccc3[nH]2)cc1`, the solubility entry in data set [1] (buffer) is “Insoluble”. In addition, the IC50 result in data set [2] is “Nd(Insoluble)”. For the same molecule, in data set [3], the outcome was inactive.

Regarding `NC(=O)c1cccc(NC(=O)c2cc3cc([N+](=O)[O-])ccc3[nH]2)c1`, the solubility entry in data set [1] (buffer) was “Insoluble”. In data set [2], the IC50 entry is recorded as “Nd(Insoluble)”. The result in data set [3] was inactive.

As for `COC(=O)c1cccc(NC(=O)c2cc3cc([N+](=O)[O-])ccc3[nH]2)c1`, in data set [1] (buffer), the solubility entry is “Insoluble”. Also, in data set [2], the IC50 result was “Nd(Insoluble)”. Besides, the result in data set [3] was inactive.

For the molecule `COC(=O)c1cccc(NC(=O)c2cc3cc([N+](=O)[O-])ccc3s2)c1`, the solubility in data set [1] (water, read-out: solubility) came to 25 µg/mL (≈ 70.2 µM). Also, the IC50 in data set [2] (setting [4]) was 54.4 µM. For the same molecule, in data set [3], the outcome was inactive.

Take `O=C(Nc1ccccc1)c1cc2cc([N+](=O)[O-])ccc2[nH]1`: in data set [1] (buffer), the solubility entry was “Insoluble”. In addition, the 50% inhibitory concentration (IC50) result in data set [2] is recorded as “Nd(Insoluble)”. Besides, in data set [3], the result was inactive.

With `COc1ccc2[nH]c(C(=O)Nc3cccc(C(N)=O)c3)cc2c1`, the solubility in data set [1] (water, read-out: solubility) came to 5 µg/mL (≈ 16.2 µM). Moreover, in data set [2] (setting [4]), the IC50 was found to be 56.6 µM. The outcome in data set [3] was inactive.

`NC(=O)c1ccc(NC(=O)c2ccc3ccccc3n2)cc1`: the solubility in data set [1] (water, read-out: solubility) turned out to be 5 µg/mL (≈ 17.2 µM). The IC50 in data set [2] (setting [4]) amounted to 54.4 µM. The outcome in data set [3] was inactive.

For the molecule `COC(=O)c1ccccc1NC(=O)c1cc2cc([N+](=O)[O-])ccc2[nH]1`, the solubility result in data set [1] (buffer) is recorded as “Insoluble”. Further, in data set [2], the IC50 entry is listed as “Nd(Insoluble)”. Besides, the outcome in data set [3] was inactive.

Turning to `NCc1ccccc1NC(=O)c1cccc2ccccc12`, the solubility in data set [1] (water, read-out: solubility) came to 25 µg/mL (≈ 90.5 µM). Also, the IC50 in data set [2] (setting [4]) stood at 224 µM. Further, the result in data set [3] was inactive.

On to `NC(=O)c1cccc(NC(=O)c2ccc(-c3ccccc3)cc2)c1`, for which the solubility in data set [1] (water, read-out: solubility) was found to be 25 µg/mL (≈ 79 µM). Besides, in data set [2] (setting [4]), the IC50 came to 79.9 µM. Besides, the outcome in data set [3] was inactive.

In the case of `COC(=O)c1ccc(NC(=O)c2cc3cc([N+](=O)[O-])ccc3[nH]2)cc1`, the solubility result in data set [1] (buffer) was “Insoluble”. The IC50 result in data set [2] is reported as “Nd(Insoluble)”. Besides, the result in data set [3] was inactive.

On to `COC(=O)c1ccc(NC(=O)c2cnc3ccccc3c2)cc1`, for which the solubility in data set [1] (water, read-out: solubility) is less than 5 µg/mL. Also, in data set [2] (setting [4]), the IC50 came out at 92.3 µM. In addition, the result in data set [3] was inactive.

As for `NC(=O)c1cccc(NC(=O)c2ccc3ccccc3c2)c1`, the solubility in data set [1] (water, read-out: solubility) was less than 5 µg/mL. In addition, the IC50 in data set [2] (setting [4]) worked out at 240 µM. The result in data set [3] was inactive.

As for `COC(=O)c1cccc(NC(=O)c2ccc3ccccc3n2)c1`, the solubility in data set [1] (water, read-out: solubility) amounted to 25 µg/mL (≈ 81.6 µM). For the same molecule, in data set [2] (setting [4]), the IC50 was found to be 92.3 µM. Moreover, in data set [3], the result was inactive.

For the molecule `O=C(Nc1ccccc1)c1cc2cc([N+](=O)[O-])ccc2o1`, the solubility in data set [1] (water, read-out: solubility) was 25 µg/mL (≈ 88.6 µM). Also, in data set [2] (setting [4]), the IC50 is more than 300 µM. Further, the outcome in data set [3] was inactive.

Turning to `NC(=O)c1ccc(NC(=O)c2ccc(-c3ccccc3)cc2)cc1`, in data set [1] (water, read-out: solubility), the solubility was less than 5 µg/mL. Besides, in data set [2] (setting [4]), the IC50 was more than 300 µM. In addition, in data set [3], the result was inactive.

With `COC(=O)c1cccc(NC(=O)c2ccc(-c3ccccc3)cc2)c1`, in data set [1] (water, read-out: solubility), the solubility was less than 5 µg/mL. The IC50 in data set [2] (setting [4]) is 105 µM. The outcome in data set [3] was inactive.

Regarding `O=C(Nc1ccccc1)c1cc2cc([N+](=O)[O-])ccc2s1`, the solubility in data set [1] (water, read-out: solubility) is 10 µg/mL (≈ 33.5 µM). In data set [2] (setting [4]), the IC50 is more than 300 µM. Also, the result in data set [3] was inactive.

`NCc1ccccc1NC(=O)c1ccc2ccccc2n1`: in data set [1] (water, read-out: solubility), the solubility is 25 µg/mL (≈ 90.1 µM). Besides, the IC50 in data set [2] (setting [4]) turned out to be 202 µM. For the same molecule, the outcome in data set [3] was inactive.
